{"source": "patent US20240099992A1", "about": "“COMPOSITIONS AND METHODS FOR TREATING CANCER” (priority 2021, published 2024)", "key": {"[1]": {"tested_on": "H22, a mouse liver cancer cell line", "details": "for Tumor suppression rate at day 9: versus normal saline group; for Tumor suppression rate at day 9 / suppression of tumor growth in the mouse liver cancer model (in words): dihydrochloride; for suppression of tumor growth in the mouse liver cancer model (in words): 120 and 240 mg/Kg daily through mouth, dose dependent", "method": "H22, a mouse liver cancer cell line from ATCC, was cultured in 1640 medium with 10% […] at 37° C., 5% CO2. The cells were harvest 48 hours later and diluted to 1×10^6 cells/mL with the medium. Kunming mice, male, and body weight of 20 to 23 grams were used for the in vivo study. The animals were allowed free access to food and water throughout the study. All experimental protocols described here were approved by the Ethics Review Committee for Animal Experimentation. 0.2 mL of 1×10^6/ml cell suspension was inoculated into the abdominal cavity of the Kunming mice. The H22 ascites was transplanted 5 days later. The H22 cells in the ascites were harvested, diluted to a concentration of 1×10^7/mL with sterilized NS, then 0.2 mL was injected subcutaneously into the right armpit region of the mice. […] The animals were randomly divided into 3 groups with 7 mice in each and received the drug through mouth daily. Group 1: normal saline; Group 2: Methylenediamine Dihydrochloride low dose of 120 mg/Kg; Group 3: methylenediamine dihydrochloride high dose of 240 mg/Kg. Two perpendicular dimensions (length and width) of the subcutaneous transplantation tumors were measured in every mouse at day 3, day 6 and day 9 to calculate the tumor volume which was compared among groups (volume=½×length×width^2). […] The tumor suppression rate was calculated as: tumor volume in normal saline group minus tumor volume in methylenediamine dihydrochloride treated group, then divided by tumor volume of normal saline group."}, "[2]": {"tested_on": "HL-60 (acute leukemia cell)", "details": "50 μM, 100 μM and 500 μM, 24 hours", "method": "(§1) 50000 cells of each cell line were plated per well in a 24 well plate, treated with methylenediamine hydrochloride at different concentrations (0 as control, 50 μM, 100 μM and 500 μM) for 24 hours, then the living cells were counted. Jurkat: T cell leukemia, HL-60: acute leukemia cell; MV-411: B-myelomonocytic leukemia."}, "Jurkat (T cell leukemia)": {"tested_on": "Jurkat (T cell leukemia)", "details": "50 μM, 100 μM and 500 μM, 24 hours", "method": "as §1"}, "[3]": {"tested_on": "MV-411 (B-myelomonocytic leukemia)", "details": "50 μM, 100 μM and 500 μM, 24 hours", "method": "as §1"}, "[4]": {"tested_on": "cancer cell lines C8161, MUM2C, SKOV3, OVACA3, ScNAP, DU145, H1299, A549, MDA231, SNU499", "details": "MTT, 24 hours", "method": "The cancer cell lines were cultured in DMEM supplemented with 10% fetal bovine serum (FBS) and 100 U/mL penicillin-streptomycin in a humidified 37° C. incubator supplemented with 5% CO2. Cell proliferation was analyzed using MTT proliferation kit (Sigma). In brief, the cells were plated (5.0×10^3 cells per well) in 96-well plates and allowed to adhere overnight. The cells were then treated with methylenediamine dihydrochloride at various concentrations (0, 1 μM, 50 μM; 100 μM. 250 μM, 500 μM and 1 mM for 24 hours before the assay. After the incubation period, 10 μL of the MTT labeling reagent (final concentration 0.5 mg/mL) was added to each well. The microplate was incubated for 4 hours in a humidified atmosphere (37° C., 5% CO2). 100 μL of the Solubilization solution was added into each well. The plate was allowed to stand overnight in the incubator in a humidified atmosphere (37° C., 5% CO2). Complete solubilization of the purple formazan crystals was checked and the absorbance of the samples was measured using a microplate reader with wavelength of 570 nm."}}, "note": "Read-outs that look alike come from different tables or passages of the source."}
{"substance": "methylenediamine dihydrochloride", "values": [{"measurement": "Average tumor volume, Day 3", "setting": "[1]; 120 mg/Kg daily through mouth", "result": 0.43, "unit": "cm^3"}, {"measurement": "Average tumor volume, Day 6", "setting": "[1]; 120 mg/Kg daily through mouth", "result": 0.85, "unit": "cm^3"}, {"measurement": "Average tumor volume, Day 9", "setting": "[1]; 120 mg/Kg daily through mouth", "result": 1.21, "unit": "cm^3"}, {"measurement": "Tumor suppression rate at day 9", "setting": "[1]; 120 mg/Kg daily through mouth", "result": 30.5, "unit": "%"}, {"measurement": "Tumor suppression rate at day 9", "setting": "[1]; 120 mg/Kg daily through mouth, listed as Methylenediamine dihydrochloride", "result": 30.5, "unit": "%"}, {"measurement": "Average tumor volume, Day 3", "setting": "[1]; 240 mg/Kg daily through mouth", "result": 0.41, "unit": "cm^3"}, {"measurement": "Average tumor volume, Day 6", "setting": "[1]; 240 mg/Kg daily through mouth", "result": 0.78, "unit": "cm^3"}, {"measurement": "Average tumor volume, Day 9", "setting": "[1]; 240 mg/Kg daily through mouth", "result": 1.10, "unit": "cm^3"}, {"measurement": "Tumor suppression rate at day 9", "setting": "[1]; 240 mg/Kg daily through mouth", "result": 36.8, "unit": "%"}, {"measurement": "Tumor suppression rate at day 9", "setting": "[1]; 240 mg/Kg daily through mouth, listed as Methylenediamine dihydrochloride", "result": 36.8, "unit": "%"}, {"measurement": "suppression of tumor growth in the mouse liver cancer model (in words)", "setting": "[1]; listed as ethylenediamine dihydrochloride", "result": "effective in treating cancers"}, {"measurement": "suppression of tumor growth in the mouse liver cancer model (in words)", "setting": "[1]; listed as methylenediamine dihydrochloride", "result": "successfully suppressed tumor growth"}, {"measurement": "suppression of living cells", "setting": "[2]", "result": "significant suppression"}, {"measurement": "suppression of living cells", "setting": "Jurkat (T cell leukemia)", "result": "significant suppression"}, {"measurement": "suppression of living cells", "setting": "[3]", "result": "significant suppression"}, {"measurement": "suppression of cell proliferation (in words)", "setting": "[4]; 0 μM to 1 mM", "result": "suppressed with a dose dependent pattern"}, {"measurement": "concentration at which suppression of most cancer cells' growth started", "setting": "[4]", "result": 50, "unit": "µM"}, {"measurement": "concentration above which proliferation was significantly suppressed", "setting": "[4]; dose dependent pattern", "result": "above 100 μM"}]}
